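Grown in 96-well plates, cells were treated for 48 hours with each compound at five concentrations. Insufficient inhibition: endpoint recorded as highest concentration tested. GI50 marks 50% less growth.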 Calls of active or inactive are those of the source. No stated cut-off is given here; in the data, active = GI50 up to about 1.1 µM and inactive = higher.
Key:
Test in all cases: inhibition of tumour cell growth, NCI panel, 48 h
SNB-19 = test system: SNB-19
RPMI-8226 = test system: RPMI-8226
OVCAR-5 = test system: OVCAR-5
K562 = test system: K562
MOLT-4 = test system: MOLT-4
HOP-18 = test system: HOP-18
SF-268 = test system: SF-268
OVCAR-8 = test system: OVCAR-8
HOP-62 = test system: HOP-62
UACC-257 = test system: UACC-257
UO-31 = test system: UO-31
SK-MEL-2 = test system: SK-MEL-2
IGROV-1 = test system: IGROV-1
HCT-15 = test system: HCT-15
SW-620 = test system: SW-620
SK-MEL-28 = test system: SK-MEL-28
NCI-H226 = test system: NCI-H226
MDA-N = test system: MDA-N
DU-145 = test system: DU-145
Hs-578T = test system: Hs-578T

Compound: CN1c2ccccc2N(C(=O)c2ccccc2)C(CC(=O)O)c2cccn21 (configuration not stated)
- GI50 (SNB-19): > 100 µM (inactive)
- GI50 (RPMI-8226): > 100 µM (inactive)
- GI50 (OVCAR-5): > 100 µM (inactive)
- GI50 (K562): > 100 µM (inactive)
- GI50 (MOLT-4): > 100 µM (inactive)
- GI50 (HOP-18): > 100 µM (inactive)
- GI50 (SF-268): > 100 µM (inactive)
- GI50 (OVCAR-8): > 100 µM (inactive)
- GI50 (HOP-62): > 100 µM (inactive)
- GI50 (UACC-257): > 100 µM (inactive)
- GI50 (UO-31): > 100 µM (inactive)
- GI50 (SK-MEL-2): > 100 µM (inactive)
- GI50 (IGROV-1): > 100 µM (inactive)
- GI50 (HCT-15): > 100 µM
- GI50 (SW-620): > 100 µM (inactive)
- GI50 (SK-MEL-28): > 100 µM (inactive)

Compound: C=C1CC(C/C=C(\C)CC2CC(=C)C(=O)O2)OC1=O (configuration not stated)
- GI50 (SNB-19): > 100 µM (inactive)
- GI50 (OVCAR-5): > 100 µM (inactive)
- GI50 (K562): > 100 µM (inactive)
- GI50 (MOLT-4): > 100 µM (inactive)
- GI50 (HOP-18): > 100 µM (inactive)
- GI50 (SF-268): > 100 µM (inactive)
- GI50 (OVCAR-8): > 100 µM (inactive)
- GI50 (HOP-62): > 100 µM (inactive)
- GI50 (UACC-257): > 100 µM (inactive)
- GI50 (UO-31): > 100 µM (inactive)
- GI50 (SK-MEL-2): > 100 µM (inactive)
- GI50 (IGROV-1): > 100 µM (inactive)
- GI50 (HCT-15): > 100 µM
- GI50 (SW-620): > 100 µM (inactive)
- GI50 (SK-MEL-28): > 100 µM (inactive)

Compound: Cc1ccc(S(=O)OCC23CC4CC(CC(C4)C2)C3)cc1 (configuration not stated)
- GI50 (SNB-19): > 100 µM (inactive)
- GI50 (RPMI-8226): > 100 µM (inactive)
- GI50 (OVCAR-5): > 100 µM (inactive)
- GI50 (K562): > 100 µM (inactive)
- GI50 (NCI-H226): > 100 µM (inactive)
- GI50 (MOLT-4): > 100 µM (inactive)
- GI50 (HOP-18): > 100 µM (inactive)
- GI50 (SF-268): > 100 µM (inactive)
- GI50 (OVCAR-8): > 100 µM (inactive)
- GI50 (HOP-62): > 100 µM (inactive)
- GI50 (UACC-257): > 100 µM (inactive)
- GI50 (UO-31): 72.8 µM (inactive)
- GI50 (IGROV-1): > 100 µM (inactive)
- GI50 (HCT-15): > 100 µM
- GI50 (SW-620): > 100 µM (inactive)
- GI50 (SK-MEL-28): > 100 µM (inactive)

Compound: CCC(C)NC(=S)N/N=C(\C)c1ccccn1 (configuration not stated)
- GI50 (SNB-19): 1.45 µM (inactive)
- GI50 (RPMI-8226): < 0.01 µM (active)
- GI50 (MDA-N): 0.57 µM (active)
- GI50 (OVCAR-5): 0.0991 µM (active)
- GI50 (K562): < 0.01 µM (active)
- GI50 (DU-145): 1.28 µM (inactive)
- GI50 (NCI-H226): 0.102 µM (active)
- GI50 (MOLT-4): < 0.01 µM (active)
- GI50 (SF-268): 0.351 µM (active)
- GI50 (Hs-578T): 0.396 µM (active)
- GI50 (OVCAR-8): 0.126 µM (active)
- GI50 (HOP-62): 0.0348 µM (active)
- GI50 (UACC-257): < 0.01 µM (active)
- GI50 (UO-31): 0.142 µM (active)
- GI50 (SK-MEL-2): 1.27 µM (inactive)
- GI50 (IGROV-1): < 0.01 µM (active)
- GI50 (HCT-15): < 0.01 µM
- GI50 (SW-620): < 0.0132 µM (active)
- GI50 (SK-MEL-28): 1.91 µM (inactive)

Compound: COc1cc(/C=C/C(=O)c2c([O-])on[n+]2-c2ccccc2)ccc1O
- GI50 (SNB-19): 4.82 µM (inactive)
- GI50 (RPMI-8226): 1.77 µM (inactive)
- GI50 (MDA-N): 2.32 µM (inactive)
- GI50 (OVCAR-5): 11 µM (inactive)
- GI50 (K562): 2.7 µM (inactive)
- GI50 (DU-145): 2.34 µM (inactive)
- GI50 (NCI-H226): 5.53 µM (inactive)
- GI50 (MOLT-4): 2.2 µM (inactive)
- GI50 (SF-268): 3.89 µM (inactive)
- GI50 (Hs-578T): 2.43 µM (inactive)
- GI50 (OVCAR-8): 2.4 µM (inactive)
- GI50 (HOP-62): 4.4 µM (inactive)
- GI50 (UACC-257): 3.87 µM (inactive)
- GI50 (UO-31): 3.25 µM (inactive)
- GI50 (SK-MEL-2): 2.31 µM (inactive)
- GI50 (IGROV-1): 2.86 µM (inactive)
- GI50 (HCT-15): 2.13 µM
- GI50 (SW-620): 2.18 µM (inactive)
- GI50 (SK-MEL-28): 2.62 µM (inactive)

Compound: CN(C)C(=O)C1CCN(Cc2c[nH]c3ccccc23)CC1
- GI50 (SNB-19): > 100 µM (inactive)
- GI50 (RPMI-8226): > 100 µM (inactive)
- GI50 (MDA-N): > 100 µM (inactive)
- GI50 (OVCAR-5): > 100 µM (inactive)
- GI50 (K562): > 100 µM (inactive)
- GI50 (DU-145): > 100 µM (inactive)
- GI50 (NCI-H226): > 100 µM (inactive)
- GI50 (MOLT-4): > 100 µM (inactive)
- GI50 (SF-268): > 100 µM (inactive)
- GI50 (Hs-578T): > 100 µM (inactive)
- GI50 (OVCAR-8): > 100 µM (inactive)
- GI50 (HOP-62): > 100 µM (inactive)
- GI50 (UACC-257): > 100 µM (inactive)
- GI50 (UO-31): > 100 µM (inactive)
- GI50 (SK-MEL-2): > 100 µM (inactive)
- GI50 (IGROV-1): > 100 µM (inactive)
- GI50 (HCT-15): > 100 µM
- GI50 (SW-620): 17 µM (inactive)
- GI50 (SK-MEL-28): > 100 µM (inactive)

Compound: O=C1NC(=O)C(C(=O)C(=O)Nc2ccc(Br)cc2)C(=O)N1
- GI50 (SNB-19): > 100 µM (inactive)
- GI50 (RPMI-8226): > 100 µM (inactive)
- GI50 (K562): > 100 µM (inactive)
- GI50 (NCI-H226): > 100 µM (inactive)
- GI50 (MOLT-4): > 100 µM (inactive)
- GI50 (HOP-18): > 100 µM (inactive)
- GI50 (SF-268): > 100 µM (inactive)
- GI50 (OVCAR-8): > 100 µM (inactive)
- GI50 (UACC-257): > 100 µM (inactive)
- GI50 (UO-31): > 100 µM (inactive)
- GI50 (IGROV-1): > 100 µM (inactive)
- GI50 (HCT-15): > 100 µM
- GI50 (SW-620): > 100 µM (inactive)
- GI50 (SK-MEL-28): > 100 µM (inactive)

Compound: CC(NNC(=O)c1cc[n+]([BH2-]C#N)cc1)c1cccc(C(F)(F)F)c1 (configuration not stated)
- GI50 (SNB-19): > 100 µM (inactive)
- GI50 (RPMI-8226): 65.2 µM (inactive)
- GI50 (MDA-N): 81.3 µM (inactive)
- GI50 (OVCAR-5): > 100 µM (inactive)
- GI50 (K562): 47.8 µM (inactive)
- GI50 (DU-145): > 100 µM (inactive)
- GI50 (NCI-H226): > 100 µM (inactive)
- GI50 (MOLT-4): 46.7 µM (inactive)
- GI50 (SF-268): > 100 µM (inactive)
- GI50 (Hs-578T): 64.4 µM (inactive)
- GI50 (OVCAR-8): > 100 µM (inactive)
- GI50 (HOP-62): > 100 µM (inactive)
- GI50 (UACC-257): 68.2 µM (inactive)
- GI50 (UO-31): 42 µM (inactive)
- GI50 (SK-MEL-2): > 100 µM (inactive)
- GI50 (IGROV-1): > 100 µM (inactive)
- GI50 (HCT-15): 68.5 µM
- GI50 (SW-620): > 100 µM (inactive)
- GI50 (SK-MEL-28): > 100 µM (inactive)

Reference: ChEMBL document CHEMBL1201862, “PubChem BioAssay data set” (2004)
